This is an account of results in patent publication US7780859B2, “Uncoupling agents” (Rhodia Operations, priority 2003, dated 2010).

Read-outs that look alike come from different tables or passages of the source.

In experiment [1] the test system is municipal activated sludge. Kind of experiment: Laboratory screening test for growth uncoupling by oxygen consumption pattern analysis (Oxitop BOD system). To be noted: test biocides at 1, 2.5, 5, 10 and 25 mg/l; 2,4-dinitrophenol at 20 mg/l; 7 days at 20° C. The text has this:
A laboratory screening test was developed to determine the impact of chemical compounds on respiration parameters through an oxygen consumption pattern analysis using a model based on published work by Monod and Pirt^1. Growth uncoupling is characterised by an increase in oxygen consumption during bacterial growth in a synthetic growth medium. 1. Monod J. 1950, Ann Inst Pasteur, “La Technique de Culture Continue, Theorie et Applications”, 79:390-410. Monod J. 1942, “Recherches sur la Croissance des Cultures Bactériennes”. Paris Herman p. 210. Pirt S J. (1965) “The Maintenance Energy of Bacteria In Growing Cultures”. Proceedings of the Royal Society of London B 163, 224-231. “Principles of Water Quality Management”. Ed: W. W. Eckenfelder, Jr. CBI Publishing Company, Inc USA. […]
For the evaluation of proposed water-soluble biocides, the oxygen consumption kinetics are measured and, a process of computer iteration optimises the equation coefficients optimised to fit the oxygen consumption curve.
From the optimised coefficients, the degree of bacterial uncoupling can be calculated. […]
Three conventional water treatment biocides were evaluated as bacterial water-soluble biocides. […]
Based on the liquid sludge, 2,4-dinitrophenol was dosed at 20 mg/l, this being the known level at which significant uncoupling would result. The test biocides were each evaluated at 1, 2.5, 5, 10 and 25 mg/l. […]

Experiment [2] has as its system sludge microorganisms. As to conditions: for Growth Yield / Specific Activity / Growth Yield Reduction: flash mixing, 52 days; for Growth Yield Reduction: vs untreated control. The text has this:
A series of semi-continuous chemostat reactors was constructed to simulate wastewater treatment processes.
The central part of the equipment is the biological chemostat reactor 1. The reactor vessel 2 is made of glass, with an internal volume of 10 liters and is fitted with pH 3 and dissolved oxygen 4 sensors and an air sparge 5. This contains the sludge, which is, essentially, a mass of typical wastewater treatment microorganisms. The reactor operates at an ambient temperature (approximately 20° C.).
Simulated wastewater 13 is contained in a separate vessel 6 and maintained at 4° C. to prevent microbial spoilage. It is transferred into the reactor via a supply line 7 and a peristaltic pump 8.
A recirculating line 9 is provided on the reactor comprising a length of flexible silicone tubing and a peristaltic pump 10. The peristaltic pump extracts the sludge from the reactor into the recirculation line. The candidate water-soluble biocide is introduced into this line 9 through a needle 11, which is fed by a syringe pump 12. Using this system it is possible to achieve “flash mixing” which ensures rapid contact of the water-soluble biocide with the sludge microorganisms. The internal diameter of the recirculating line was 8 mm and the flow velocity was 0.5 meters per second, which gave a contact time, between candidate water-soluble biocide and sludge of 3 seconds before it re-entered the reactor.
Treated effluent 17 is removed from the reactor into a collecting vessel 16 via an outlet line 15.
The reactor was charged with sludge obtained from the Municipal wastewater treatment works at Courly-Lyon, in France. This sludge provided the “seed” to start the process off. The reactor was then filled, to the 5 liter mark, with simulated wastewater, adjusted to approximately pH 7.5, and aeration was commenced.
Each weekday (i.e. 5 times per week), 13.3% of the bioreactor contents were withdrawn to maintain the equilibrium. This ensured a sludge age in the region of 7.5 days.
Also, each weekday, after the adjustments described in the preceding paragraph, candidate water-soluble biocide (as a dilute solution) was injected into the system via the flash mixing recirculating line. The dilute solution was prepared by dissolving 10 grams of sodium hydrogen carbonate in approximately 900 ml of deionised water then adding 5 grams of candidate water-soluble biocide and mixing well. The mixture was then made up to 1 liter with deionised water. The appropriate volume of this dilute solution was injected to achieve the required dose level.
The experiment was conducted for 52 days before decommissioning the system.
Compound X was evaluated in the test. This compound is a 75% aqueous solution of tetrakis(hydroxymethyl)phosphonium sulphate (THPS). Two concentrations were evaluated: 2 and 4 milligrams per liter per day.

In experiment [3] the test system is sludge microorganisms. As to conditions: 4 mg/l/day, pre-dilution, 52 days. As for the experimental part:
The equipment used in this test sequence was identical to that used for example 1 except that the reactor was not fitted with a recirculating line for flash mixing.
The procedure was identical to that used for example 1 except that the method of dosing Compound X was different. In this case, 5 grams of Compound X was mixed into a solution containing 5 grams of sodium hydrogen carbonate in 1 liter of deionised water. 4.0 ml of this solution was added to 500 ml of clarified wastewater which had been extracted from the bioreactor. The treated clarified wastewater was then returned to the bioreactor and normal operation of the bioreactor was resumed. The final concentration of Compound X in the bioreactor therefore equates to 4 mg per liter. This procedure was conducted daily, 5 times per week.
The experiment was conducted in parallel with example 1, i.e. for 52 days before decommissioning the system.
A Compound X concentration of 4 milligrams per liter per day was used.

`CCCCCCCCCCCC[N+](C)(C)C.[Cl-]` [C, Dodecyltrimethylammonium chloride]: the “level of uncoupling (percentage uncoupling, FIG. 4)” value in experiment [1] is “greater levels of uncoupling at significantly lower dose levels than the conventional water-soluble biocide, 2,4-dinitrophenol”.
As for “tetrakis(hydroxymethyl)phosphonium sulphate [Compound X]”, the “Growth Yield” value with sludge microorganisms [2] (2 mg/l/day) is given as 0.202 g MLSS/g COD; in the experiment on sludge microorganisms [2] (4 mg/l/day), 0.167 g MLSS/g COD; with sludge microorganisms [3], 0.201 g MLSS/g COD. For the same compound, the results for the “Specific Activity” value in the experiment with sludge microorganisms [2] (2 mg/l/day), in the experiment with sludge microorganisms [2] (4 mg/l/day) and in the experiment on sludge microorganisms [3] were 0.582 g COD/g MLSS.d, 0.772 g COD/g MLSS.d and 0.636 g COD/g MLSS.d, respectively. In addition, the figures for the “Growth Yield Reduction” value in the experiment with sludge microorganisms [2] (2 mg/l/day), with sludge microorganisms [2] (4 mg/l/day) and with sludge microorganisms [3] (vs untreated control) were 27.7%, 37.6% and 26.4%, respectively. Further, in the experiment with sludge microorganisms [2] (flash treatment, low dose levels), the sludge growth entry is given as “significantly reducing sludge growth”. In the experiment on sludge microorganisms [2] (treated sludge relative to untreated), the “concentration of protozoans and other higher organisms in the sludge” value is “significantly higher concentration”. Further, the “filamentous bacteria in the sludge” value with sludge microorganisms [2] (treated systems vs untreated control) is reported as “substantially absent”.
